Source: US8617604B2, “Pharmaceutical compositions with enhanced performance” (Bend Research, Inc., priority 2005, dated 2013)
Like-named read-outs stand apart in the source and are kept apart here.

Legend:
[1] = Microcentrifuge dissolution test; type: physicochemical
[2] = In vitro membrane permeation test (maximum flux of drug across membrane); conditions: 100 μgA/mL; for Maximum Flux of Drug 5: Table 15, feed 0.5 wt % NaTC/POPC, permeate 60 wt % decanol in decane
Text: An Accurel® PP 1E microporous polypropylene membrane was obtained from Membrana GmbH (Wuppertal, Germany). The membrane was washed in isopropyl alcohol and rinsed in methanol in a sonicating bath for one minute at ambient temperature, and then allowed to air dry at ambient temperature. The feed side of the membrane was then plasma-treated to render it hydrophilic by placing a sample of the membrane in a plasma chamber. The atmosphere of the plasma chamber was saturated with water vapor at a pressure of 550 mtorr. A plasma was then generated using radio frequency (RF) power inductively coupled into the chamber via annular electrodes at a power setting of 50 Watts for 45 seconds. The contact angle of a drop of water placed on the surface of the plasma-treated membrane was about 40°. The contact angle of a drop of water placed on the permeate side of the same membrane was greater than about 110°.
A permeate reservoir was formed by capping the open end of a glass tube having an inside diameter of about 2 54 cm by gluing a sample of the plasma-treated membrane to the tube using an epoxy-based glue (LOCTITE® E-30CL HYSOL® from Henkel Loctite Corp, Rocky HUI, Conn.). The membrane was oriented so that its feed side was on the outside of the permeate reservoir and its permeate side was on the inside of the reservoir. The effective membrane area of the membrane capping the permeate reservoir was about 4.9 cm^2. The permeate reservoir was placed into a glass feed reservoir. The feed reservoir was equipped with a magnetic stir bar and the reservoir was placed on a stir plate and the stir rate was set to 100 rpm during the test. The apparatus was placed into a chamber maintained at 37° C. for the duration of the test.
To this was added 5 mL of an aqueous solution designed to model the fed state, consisting of a Phosphate Buffered Solution (PBS) containing 29.2 mM or 2 wt % sodium taurocholic acid and 5.6 mM of 1-palmitoyl-2-oleyl-sn-glycero-3-phosphocholine (NaTC/POPC). […] The feed solution was mixed using a vortex mixer for 1 minute. Before the membrane contacted the feed solution, 5 mL of 20 wt % decanol in decane was placed into the permeate reservoir. Time zero in the test was when the membrane was placed in contact with the feed solution. A 50 μL aliquot of the permeate solution was collected at 20, 40, 60, 90, 120, 180, 240, and 350 minutes. Samples were then diluted in 250 μL isopropyl alcohol and analyzed using HPLC.
The maximum flux of drug across the membrane (in units of μgA/cm^2-min) was determined by performing a least-squares fit to the data to obtain the maximum slope, multiplying the slope by the permeate volume (5 mL), and dividing by the membrane area (4.9 cm^2).
The maximum flux of drug across the membrane (in units of μgA/cm^2-min) was determined by estimating the tangent to the concentration versus time curve at time 0.
To this was added 5 mL of the Model Fasted Duodenum (MFD) solution consisting of Phosphate Buffered Saline (PBS) solution containing 7.3 mM sodium taurocholic acid and 1.4 mM of 1-palmitoyl-2-oleyl-sn-glycero-3-phosphocholine (0.5% NaTC/POPC). […] The feed solutions were each mixed using a vortex mixer for 1 minute. Before the membrane contacted the feed solutions, 5 mL of 20 wt % decanol in n-decane was placed into the permeate reservoir. Time zero in the test was when the membrane was placed in contact with the feed solution. […] Samples were then diluted in 250 μL isopropyl alcohol and analyzed using HPLC.

[3] = Aqueous solubility of the drugs; type: physicochemical; conditions: aqueous medium (not specified further)
[4] = Table 18, Drug 1, PBS pH 6.5, 37° C., 1000 μgA/mL
[5] = Table 20, Drug 1, microcentrifuge dissolution test described above
[6] = Table 19, Drug 2, MFD solution, 1000 μgA/mL

**Q.** Which results are given for `CCOC(=O)N1c2ccc(C(F)(F)F)cc2[C@@H](N(Cc2cc(C(F)(F)F)cc(C(F)(F)F)c2)C(=O)OC)C[C@H]1CC` [Control C1]?
**A.** Maximum Flux of Drug 1 (120 μg/mL): 0.091 μgA/cm^2-min; Maximum Flux of Drug 1 (120 μgA/mL): 0.08 μgA/cm^2-min; AUC90 ([1]; Table 11, Drug 1, PBS pH 6.5, 37° C., area under the curve from 0 to 90 minutes): <88 min · μgA/mL; MDC90 ([1]; Table 11, Drug 1, PBS pH 6.5, 37° C., maximum drug concentration between 0 and 90 minutes): <1 μgA/mL; AUC90 [1, 4]: <100 min · μgA/mL; MDC90 [1, 4]: <1 μgA/mL; AUC90 [1, 5]: <100 min · μgA/mL; MDC90 [1, 5]: <1 μgA/mL

**Q.** With `O=C(NOCC1CC1)c1ccc(F)c(F)c1Nc1ccc(I)cc1Cl` [Control C2] as the molecule, how does the AUC90 [1, 6] read?
**A.** The AUC90 was 4200 min · μgA/mL.

**Q.** And the MDC90 [1, 6]?
**A.** The MDC90 was 101 μgA/mL.

**Q.** For `O=C1Cc2cc(CCN3CCN(c4nsc5ccccc45)CC3)c(Cl)cc2N1` [Control C4], which “Maximum Drug Flux” value ([2]; Table 21, Drug 4, feed 0.5% NaTC/POPC (MFD), permeate 60 wt % decanol in n-decane) is on record?
**A.** Its value is 0.16 μgA/cm^2-min.

**Q.** For `O=C1Cc2cc(CCN3CCN(c4nsc5ccccc45)CC3)c(Cl)cc2N1` [Control C5], which “Maximum Flux of Drug 5” value [2] is on record?
**A.** The value was 0.099 μgA/cm^2-min.

**Q.** With `O=C1Cc2cc(CCN3CCN(c4nsc5ccccc45)CC3)c(Cl)cc2N1` [Control C6] as the molecule, how does the “Maximum Flux of Drug 5” value [2] read?
**A.** The value was 0.07 μgA/cm^2-min.

**Q.** Which solubility [3] does the source give for `CCOC(=O)N1c2ccc(C(F)(F)F)cc2[C@@H](N(Cc2cc(C(F)(F)F)cc(C(F)(F)F)c2)C(=O)OC)C[C@H]1CC` [Drug 1, [2R,4S]-4[(3,5-bis-trifluoromethyl-benzyl)-methoxycarbonyl-amino]-2-ethyl-6-trifluoromethyl-3,4-dihydro-2H-quinoline-1-carboxylic acid ethyl ester] here?
**A.** The solubility was less than 0.1 µg/mL.

**Q.** With `O=C1Cc2cc(CCN3CCN(c4nsc5ccccc45)CC3)c(Cl)cc2N1` [Drug 4] as the molecule, how does the solubility ([3]; free base form) read?
**A.** Its solubility is less than 0.1 µg/mL.

**Q.** What about the solubility ([3]; hydrochloride salt form) of the same molecule?
**A.** Its solubility is roughly 10 µg/mL.
